We go through one compound from patent US20160045487A1, “COMPOSITIONS AND METHODS FOR TREATING NEUROPATHY” (CHILDEREN'S MEDICAL CENTER CORPORATION, priority 2013, published 2016).

Series [1] deals with T1, RET (Homo sapiens, UniProt P07949+P56159).
T1 construct: endogenous in cells; host or cells: SH-SY5Y (SH-SY5Y-THpGL3) human neuroblastoma cells
In words: RET phosphorylation phospho-tyrosine Western blot in SH-SY5Y cells. Type of series: cell-based. An excerpt:
One goal of these studies was to determine if XIB4035 could be used for treating SFN in humans. Using the Neuro2A (N2A) murine neuroblastoma cell line, Tokugawa et al. (supra) reported XIB4035 as a competitive agonist for the GDNF receptor GFRα1 that activates the RET receptor. Since populations of DRG sensory neurons express different GFRα receptors, thus making them preferentially responsive to the particular ligands, it was important to determine if XIB4035 was specific to GFRα1 or could act on other family members. Since PSPN has no effect on peripheral sensory neurons, the GFRα1, GFRα2, and GFRα3 receptors were the focus of these studies. The SH-SY5Y, a human neuroblastoma cell line expressing mRNA for GFRα1, GFRα2, and GFRα3, was used to perform two cell-based assays; immunoblots measuring RET phosphorylation and a luciferase reporter assay using the tyrosine hydroxylase (TH) promoter. For the latter two paradigms were used, either overnight treatment immediately followed by luciferase activity measurements or 10 minute treatments followed by washout and overnight incubation prior to measurements. GDNF and ARTN induced robust TH-luciferase activity in a dose dependent manner (FIG. 3E). Because the responses to GDNF and ARTN were more robust, these two factors were chosen for further analysis.
Since the original report argued that XIB4035 displaces GDNF binding to GFRα1 expressing cells (FIG. 2 in Tokugawa et al., Neurochem Int 42, 81-86 (2003).), potentially ARTN, on TH-luciferase activity and Ret phosphorylation. […] In this experiment, cells were treated with GDNF or ARTN with or without XIB4035 for 10 minutes and cell lysates were either collected immediately or treatment was washed out and replaced with growth media for 30, 60, or 120 minutes. […] Therefore, we tested cells expressing only one GFRα using either N2A cells (which express RET) transfected with GFRα1 or GFRα3 expression constructs, or B(E)2-C cells, which express only GFRα2 together with RET. […]
A general note: Immunoblotting shows a protein as a band on a membrane.

Series [2] deals with diabetic mice (STZ model). In words: Sub-epidermal neural plexus density in papillary dermis of STZ diabetic mice. Type of series: in vivo, mouse. The settings on record: cream from hyperglycemia for 16 weeks. The method, then: To examine SNP, normo-glycemic or diabetic mice (STZ model) were treated with either vehicle cream of cream containing XIB4035 from the moment they became hyperglycemic, for 16 weeks. At the end of this treatment period, the density of sub-epidermal fibers in papillary dermis was measured in papillary dermis. It was thereby identified that sub-epidermal neural plexus (SNP) density was reduced in diabetic mice not administered XIB, but was preserved in diabetic mice that had received XIB4035 treatment (FIG. 10).
(§1) Adult female C57 Bl/6J mice were made diabetic (blood glucose >15 mmol/L) by injection of STZ (90 mg/kg i.p.) on two consecutive days, with confirmation of hyperglycemia made 7 days after STZ delivery. Paw thermal response latency of the right paw was measured every two weeks from weeks 8-16 of diabetes using a modified Hargeaves test, as described

For series [3], the system named is diabetic mice (STZ model). Put plainly: Nerve conduction velocity in sciatic nerves of STZ diabetic mice. Type of series: in vivo, mouse. The settings on record: cream from hyperglycemia for 16 weeks. The method, then:
To examine NCV, normo-glycemic or diabetic mice (STZ model, as described elsewhere herein) were treated with either vehicle cream or with cream containing XIB4035 from the moment they became hyperglycemic, for 16 weeks. At the end of this period, nerve conduction velocity (NCV) was measured in sciatic nerves.
as §1

Series [4] deals with GFAP-DN-erbB4 mice. In words: Electron microscopy of sciatic nerve Remak bundles, GFAP-DN-erbB4 mice. Type of series: in vivo, mouse. How it is done:
(§2) As a first test, a cream containing XIB4035 (1.5 mM) was applied directly to the hind paws of GFAP-DN-erbB4 and wild type mice twice daily for a period of 4 weeks starting prior to symptom onset (P21). Mice of both genotypes were also treated with the base cream containing no drug for control. Mice were tested for responses to a noxious thermal stimulus prior to the initiation of treatment and every 7 days for the duration of the experiment.
The cream containing XIB4035 (1.5 mM, ZereneX Molecular Ltd., Manchester, UK) consisted of N-methyl-pyrrolidone (6.25%), isopropyl myristate (6.25%) and petroleum jelly (87.5%). Control cream had the same ingredients without XIB4035. Cream was applied twice daily to the hind paws of mice starting at P21 for a period of 4 weeks for prophylactic treatment of GFAP-DN-erbB4. Diabetic mice were treated twice daily for 8 weeks after streptozotocin (STZ) injection prior to onset of hyperglycemia and for another 8 weeks during neuropathy testing. Cream treatment in therapeutic studies using GFAP-DN-erbB4 mice was performed twice daily beginning after onset of SFN at P28 and either continued for 5 weeks (chronic treatment) or 1 week (acute treatment).
Tissue was prepared as in (Lacomis, supra). Briefly, mice were perfused intracardially with 2% paraformaldehyde, 2.5% gluteraldehyde and 0.03% picric acid in 0.1 M cacodylate buffer (pH 7.2). Tissue was post-fixed overnight at 4° C. and embedded in Epon. Ultrathin sections were cut, collected on cellodin-coated grids and stained using uranyl acetate and lead citrate. Photographs were taken using the Tecnai G2 Spirit BioTWIN transmission electron microscope.

In series [5] the test system is GFAP-DN-erbB4 and wild type mice. In words: Mechanical sensitivity (von Frey filaments). Type of series: in vivo, mouse. Particulars: after 4 weeks topical treatment, cream 1.5 mM. How it is done: as §2
Mechanical sensitivity was tested by simulation of the plantar surface of the hind paw with a series of von Frey filaments while the animal was placed on an elevated wire grid. The threshold was determined as the lowest force that evoked a visible withdrawal response. The use of animals was approved by the Animal Care and Use Committee of Children's Hospital Boston.

Setting [6] is: GFAP-DN-erbB4 mice, XIB4035 cream 4 weeks.

T1 sequence (P07949 29-1114): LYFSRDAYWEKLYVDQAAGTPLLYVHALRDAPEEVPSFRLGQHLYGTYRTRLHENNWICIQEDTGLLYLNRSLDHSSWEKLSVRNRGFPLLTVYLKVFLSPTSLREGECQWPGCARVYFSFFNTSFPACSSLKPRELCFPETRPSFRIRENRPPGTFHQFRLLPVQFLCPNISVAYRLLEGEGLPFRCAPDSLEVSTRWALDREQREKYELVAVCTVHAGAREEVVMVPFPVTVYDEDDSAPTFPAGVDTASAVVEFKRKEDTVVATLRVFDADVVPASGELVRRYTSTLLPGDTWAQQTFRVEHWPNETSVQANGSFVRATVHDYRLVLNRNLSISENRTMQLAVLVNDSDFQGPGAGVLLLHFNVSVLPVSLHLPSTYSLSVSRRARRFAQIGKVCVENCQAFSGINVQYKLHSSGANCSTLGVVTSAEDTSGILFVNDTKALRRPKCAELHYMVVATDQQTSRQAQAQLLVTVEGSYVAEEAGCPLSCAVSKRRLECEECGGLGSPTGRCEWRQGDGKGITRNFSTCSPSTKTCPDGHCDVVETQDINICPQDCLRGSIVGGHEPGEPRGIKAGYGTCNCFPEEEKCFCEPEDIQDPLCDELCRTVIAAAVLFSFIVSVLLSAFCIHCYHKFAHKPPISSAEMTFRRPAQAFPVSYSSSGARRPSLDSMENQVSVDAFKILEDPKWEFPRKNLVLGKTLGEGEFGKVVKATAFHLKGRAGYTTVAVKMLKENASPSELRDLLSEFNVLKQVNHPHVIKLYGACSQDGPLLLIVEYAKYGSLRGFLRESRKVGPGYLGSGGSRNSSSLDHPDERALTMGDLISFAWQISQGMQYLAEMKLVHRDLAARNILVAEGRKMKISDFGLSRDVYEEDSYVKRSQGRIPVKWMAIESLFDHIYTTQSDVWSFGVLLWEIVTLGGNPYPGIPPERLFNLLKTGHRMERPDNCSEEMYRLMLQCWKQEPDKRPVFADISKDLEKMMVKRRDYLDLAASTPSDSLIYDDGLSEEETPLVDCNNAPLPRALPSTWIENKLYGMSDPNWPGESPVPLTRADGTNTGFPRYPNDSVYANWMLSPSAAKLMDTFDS
T1 sequence (P56159 25-429 limits assumed): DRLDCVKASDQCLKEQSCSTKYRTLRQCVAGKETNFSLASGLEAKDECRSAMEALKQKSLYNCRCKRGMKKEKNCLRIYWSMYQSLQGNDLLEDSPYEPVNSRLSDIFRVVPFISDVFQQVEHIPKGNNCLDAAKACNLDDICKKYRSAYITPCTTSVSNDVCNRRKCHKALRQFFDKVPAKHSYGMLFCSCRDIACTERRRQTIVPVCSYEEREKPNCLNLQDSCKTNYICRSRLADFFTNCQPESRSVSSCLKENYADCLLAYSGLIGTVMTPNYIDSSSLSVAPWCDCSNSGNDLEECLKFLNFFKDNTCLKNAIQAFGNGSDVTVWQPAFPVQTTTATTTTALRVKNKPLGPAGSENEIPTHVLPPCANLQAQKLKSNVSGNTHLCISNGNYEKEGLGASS

In the case of `CCN(CC)CCCC(C)Nc1cc(/C=C/c2ccccc2Cl)nc2cc(Cl)ccc12` (centres unmarked) [XIB4035, N4-{7-chloro-2-[(E)-2-(2-chloro-phenyl)-vinyl]-quinolin-4-yl}-N1,N1-diethyl-pentane-1,4-diamine], in series [1] (20 μM XIB4035 with 2 nM GDNF or 1 nM ARTN, 10 minutes treatment), the “duration of ligand-induced RET phosphorylation after washout” value is recorded as “at least 120 minutes”. Moreover, the “induction of RET phosphorylation” value in series [1] (XIB4035 alone, various concentrations, two or 10 minutes) was “failed to induce RET phosphorylation”. Further, the “sub-epidermal neural plexus (SNP) density” value in series [2] was “preserved”. Further, the “nerve conduction velocity (NCV) in sciatic nerves” value in series [3] is “not statistically different from that observed in control animals”. In series [4] (setting [6]), this compound returned a c-fiber area of 1.64 ± 0.07 µm² and a c-fibers/Remak bundle of 8.40 ± 0.83. Besides, in series [4] (cream 1.5 mM twice daily P21-P49, sciatic nerve EM), the “degeneration of Remak bundles and C-fiber axons” value is “prevented the degeneration of Remak bundles and C-fiber axons”. Moreover, the “effect on mechano-reception (response thresholds to mechanical stimuli)” value in series [5] is on record as “no effect”.
